# From patent US10975412B2, “Method for designing compounds and compositions useful for targeting high stoichiometric complexes to treat conditions, including treatment of viruses, bacteria, and cancers having acquired drug resistance” (priority 2015, dated 2021)
# Read-outs that look alike come from different tables or passages of the source.
# Biological target: T1, phi29 DNA packaging motor (Bacillus phage phi29, UniProt P11014)
# T1 construct: made in house
# Format: biochemical, bacteriophage phi29
# Settings: for inhibition effect in viral assembly: adding 20% of the drugged/mutant component to the wild-type component
# Method: (§1) Purified components were subjected to in vitro viral assembly assay as described previously. Briefly, 10 μg of purified procapsids were mixed with 100 ng of pRNA in 5 μl of reaction buffer (10 mM ATP, 6 mM 2-mercaptoethanol, and 3 mM spermidine in TMS buffer) at room temperature for 30 min. Purified DNA-gp3 and gp16 were then added and the reaction mixture was incubated at room temperature for one hour to initiate DNA packaging. Finally, the DNA filled procapsids were incubated with 10 μl of gp8.5-9 extract from E. coli containing plasmid pARgp8.5-9 and 20 μl of gp11-14 extract from E. coli to complete the infectious phage assembly.
# The newly assembled infectious viruses were plated with inoculated B. subtilis bacteria Su^+44 cells onto a half LB plate covered with top agar. After 12 hour incubation at 37° C., the viral assembly efficiency (plaque-forming unit, PFU) was calculated by counting the formed plaque numbers.
# as §1
# T1 sequence (P11014 whole entry): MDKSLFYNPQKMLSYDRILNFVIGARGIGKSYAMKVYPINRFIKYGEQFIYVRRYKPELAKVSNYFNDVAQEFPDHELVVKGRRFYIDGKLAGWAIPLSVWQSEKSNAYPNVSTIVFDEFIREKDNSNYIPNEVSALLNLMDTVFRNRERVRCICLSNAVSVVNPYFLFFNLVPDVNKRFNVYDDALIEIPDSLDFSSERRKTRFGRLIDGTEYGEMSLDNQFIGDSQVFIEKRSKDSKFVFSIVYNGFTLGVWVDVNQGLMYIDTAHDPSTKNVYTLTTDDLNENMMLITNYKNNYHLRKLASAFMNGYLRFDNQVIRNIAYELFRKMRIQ
structure (smiles),measurement,setting,value
Nc1ncnc2c1ncn2[C@@H]1O[C@H](COP(=O)(O)OP(=O)(O)OP(O)(O)=S)[C@@H](O)[C@H]1O [γ-S-ATP],inhibition effect in viral assembly,,almost completely inhibited
same,inhibition effect in viral assembly,listed as gamma-s-ATP,nearly completely inhibited
same,comparison of virus assembly inhibition effect between drugged components,"targets ATP, pRNA, ATPase gp16, DNA with stoichiometry 10000, 6, 6, 1",strongest inhibition effect
